As usually defined, the Kd is the free concentration of one partner at which half of the binding sites on the other are occupied at equilibrium, for simple one-to-one binding. One may read the IC50 as the midpoint of a concentration-inhibition curve.

Here are results for eight molecules from paper PMC4240550 (PLoS ONE, 2014).

Test [1] concerns the target T1, LecB (Pseudomonas aeruginosa, UniProt Q9HYN5). Particulars: for N: ITC stoichiometry; for difference in Kd / binding affinity from the equatorial methyl group: microcalorimetry, vs analog lacking the methyl group (4 vs 5; 3 vs 7).
For test [2], the target named is T1, LecB. Particulars: ITC; cited from earlier work. On the technique in general: ITC needs no label: the signal is the heat of the interaction.
The target of test [3] is T1, LecB. Nature of the test: biochemical.
The target in test [4] is T1, LecB. Nature of the test: biochemical. The note with it: IC50, fluorescence polarization, TBS/Ca pH 7.4; mean ± SD of minimum three independent measurements of triplicates. It counts as binding. In general terms: In fluorescence polarisation assays a small probe gives low polarisation when free and higher when bound to something large.
The mark [5] stands for this setting: validation titration of LecB (56.1 µM) with 1 (700 µM).
The mark [6] stands for this setting: 25°C, mean ± SD of minimum three titrations (5: indirect titration with 3, two titrations).
Where [7] appears, read: mean ± SD of minimum three titrations (5: indirect titration with 3, two titrations).

Several values for one entry are separate records, joined by “and”; a condition that tells them apart may be missing. Equal values may be shown once. Read-outs that look alike come from different tables or passages of the source.

T1 sequence (Q9HYN5 entry or part of it): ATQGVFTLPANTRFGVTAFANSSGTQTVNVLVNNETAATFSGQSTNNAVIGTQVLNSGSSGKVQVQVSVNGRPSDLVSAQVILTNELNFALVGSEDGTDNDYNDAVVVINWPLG

For `CO[C@@H]1O[C@@H](C)[C@@H](O)[C@@H](O)[C@@H]1O` [compound 1, methyl α-L-fucoside, reference compound], the “difference in Gibbs energy” value at LecB [1] (methyl α-L-fucoside (1) compared with 1-deoxy L-fucose (3)) was -0.359 kcal/mol. On LecB [1] (setting [5]), this molecule yielded a ΔG of -8.525 kcal/mol and a ΔH of -9.257 kcal/mol. Also, at LecB [2], the “-TΔS” value is 1.17 kcal/mol and the ΔH is -9.87 kcal/mol.

Consider `CO[C@H]1O[C@H](CO)[C@@H](O)[C@H](O)[C@@H]1O` [compound 2, methyl α-D-mannoside], for which, at LecB [2], the “-TΔS” value is -1.41 kcal/mol and the ΔH was -4.25 kcal/mol.

As for `CC1OCC(O)C(O)C1O` [compound 3, 1-deoxy L-fucose], the Kd on LecB [3] turned out to be 0.77 ± 0.1 µM. Also, on LecB [1] (setting [6]), the “-TΔS” value amounted to 0.327 ± 0.263 kcal/mol, the ΔG is -8.34 ± 0.072 kcal/mol and the ΔH is -8.68 ± 0.22 kcal/mol. The N on LecB [1] (setting [7]) was found to be 1.07 ± 0.03. The “difference in Kd / binding affinity from the equatorial methyl group” value on LecB [1] is on record as 4- to 6 fold. The same molecule had an IC50 at LecB [4] of 1.6 ± 0.7 µM.

At LecB [3], `C[C@@H]1O[C@H](CO)[C@@H](O)[C@H](O)[C@@H]1O` [compound 4, β-L-fucopyranosyl methanol] registered a Kd of 16.1 µM. On LecB [1] (setting [6]), the “-TΔS” value is -0.588 ± 0.335 kcal/mol, the ΔG was -6.57 ± 0.239 kcal/mol and the ΔH is -5.98 ± 0.382 kcal/mol. This molecule also came in with a N at LecB [1] (setting [7]) of 0.86 ± 0.1. For the same molecule, the “difference in Kd / binding affinity from the equatorial methyl group” value on LecB [1] is 4- to 6 fold. In addition, the 50% inhibitory concentration (IC50) against LecB [4] is 23 µM and 22.9 µM.

At LecB [3], `OC[C@H]1OC[C@@H](O)[C@@H](O)[C@@H]1O` [compound 5, 1-deoxy D-mannose] had a Kd of 69.1 ± 25 µM. Also, on LecB [1] (setting [6]), the “-TΔS” value is -1.41 ± 0.382 kcal/mol, the ΔG was -5.69 ± 0.22 kcal/mol and the ΔH is -4.28 ± 0.14 kcal/mol. The molecule further returned a N on LecB [1] (setting [7]) of 0.87 ± 0.18. For the same molecule, the IC50 against LecB [4] is 104 µM.

`C[C@@H]1O[C@H](C)[C@@H](O)[C@H](O)[C@@H]1O` [compound 6, β-L-fucopyranosyl methane] showed a Kd at LecB [3] of 16.9 ± 1.9 µM. In addition, on LecB [1] (setting [6]), the “-TΔS” value was -0.308 ± 0.43 kcal/mol, the ΔG is -6.5 ± 0.072 kcal/mol and the ΔH was -6.19 ± 0.382 kcal/mol. This molecule registered a N on LecB [1] (setting [7]) of 0.86 ± 0.2. For the same molecule, on LecB [4], the concentration for half-maximal inhibition (IC50) was 21 µM and 20.6 µM.

Turning to `OC1[C@H](O)COC[C@H]1O` [compound 7, 1-deoxy D-arabinose], the Kd at LecB [3] stood at 4.46 ± 0.7 µM. In addition, at LecB [1] (setting [6]), the “-TΔS” value stood at 1.14 ± 0.574 kcal/mol, the ΔG is -7.29 ± 0.072 kcal/mol and the ΔH is -8.44 ± 0.574 kcal/mol. Besides, the N at LecB [1] (setting [7]) worked out at 0.81 ± 0.1. For the same molecule, the IC50 against LecB [4] was 9.7 µM and 9.65 µM.

As to `CO[C@@H]1OC[C@@H](O)[C@@H](O)[C@@H]1O` [compound 13, methyl β-D-arabinoside], at LecB [2], the “-TΔS” value is 1.29 kcal/mol, the Kd is 1.7 µM, the ΔG is -7.89 kcal/mol and the ΔH is -9.06 kcal/mol. At LecB [4], this molecule gave an IC50 of 3.4 µM.
